≈ marks a conversion by molar mass, not a printed value.

The nature of data set [1]: Kinetic solubility determination. Type of data set: physicochemical. As to conditions: for solubility kinetic: aqueous buffer, pH 7.4, aqueous buffer, kinetic from dmso stock, Table S9. As for the experimental part:
(§1) (1 picture or pasted object on this page, not shown here)
Each sample was tested in triplicate.

The target in another data set is T1, RHOGDI1-RAC1 interaction (Homo sapiens, UniProt P52565).
T1 construct: GST; made in house; host or cells: RHOGDI1: E. coli; GerGer-RAC1: insect cells (TNAO38)
T1 sequence (P52565 1-204): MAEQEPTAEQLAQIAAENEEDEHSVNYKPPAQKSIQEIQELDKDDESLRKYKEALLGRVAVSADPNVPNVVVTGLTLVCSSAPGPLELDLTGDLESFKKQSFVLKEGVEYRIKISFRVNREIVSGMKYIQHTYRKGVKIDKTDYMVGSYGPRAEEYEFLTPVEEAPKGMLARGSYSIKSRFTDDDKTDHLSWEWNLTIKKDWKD
As to the kind of experiment: Surface plasmon resonance: RHOGDI1-mediated displacement of GerGer-RAC1-GDP from immobilized liposomes. Type of data set: biochemical. As to conditions: for Effect on kinetics of geranylgeranylated RAC1 extraction by RHOGDI1 (in words): SPR. As to the method:
RHOGDI1 displaced liposome -bound RAC1 from the surface of L1 chip with a koff of 0.016 […]
bound RAC1. Calculated rate constants by mono-exponential fitting of RU decays were 0.02 and 0.032 s-1 for RHOGDI1-mediated RAC1 displacement from the liposomes in the presence of 7a and 7d, respectively. (d) Competition-based fluorescence polarization experiments were performed by titration of 7a against 10 nM fluorescein-labelled atorvastatin and GST-PDEδ.
(e) Fluorescence polarization experiment using 10 nM probe 10 and titration of PDEδ.
as §1
Surface plasmon resonance (SPR)
Biacore® X100 instrument (Biacore, now GE Healthcare) was used to analyze the effect of 7a on the GerGer-RAC1-GDP and RHOGDI1 interaction. Liposomes suspended in SPR buffer (20 mM HEPES, pH 7.4, 50 mM NaCl, 5 mM MgCl2, 3 mM DTT) were immobilized by injecting 0.5 mM liposomes with flowrate of 5 µL/min on the surface of a Pioneer® L1 sensor chip (GE Healthcare) for the period of 900 s, as indicated by a constant signal. Unbound liposomes were removed by passing the buffer and 10 mM NaOH with flowrate of 5 µL/min for 30 s over the sensor chip. Buffer containing 15 µM GerGer-RAC1-GDP was passed with flowrate of 5 µL/min over the immobilized liposomes to facilitate the loading of GerGer-RAC1-GDP on to the liposomes. The effect of compounds on the association of GerGer-RAC1-GDP with liposomes and the resulting dissociation of GerGer-RAC1 upon passing 25 µM of RHOGDI1 was monitored by the change in the response unit signal.
Protein expression and purification
RHOGDI1 delta15, RHOGDI1 delta25, RHOGDI1-3 were produced in E. coli (XL1-Blue) as a GST recombinant protein as described previously.[9] In summary, protein were expressed in E.coli BL21 upon addition of IPTG overnight. Cell were collected and lysed in a lysis buffer, containing 30 mM Tris-NaOH pH 7.4, 150 mM NaCl, 1 mM DTT, and 5 mM MgCl2. Cells were further lysed using sonication. […]
(In general: Surface plasmon resonance follows binding to a sensor surface in real time, without labels.)

The subject of a further data set is Shh-LIGHT2 cells. As to the kind of experiment: GLI-dependent reporter gene assay (RGA). As to conditions: for Inhibition of GLI-dependent reporter gene expression (in words): Shh-LIGHT2 cells. Type of data set: cell-based. As to the method:
using a three-fold dilution series starting from a concentration of 30 μM. Half-maximal inhibitory concentrations (IC50) were calculated using the Quattro software suite (Quattro Research, Planegg, Germany) or GraphPad Prism 7 (GraphPad, USA). […]
GLI-dependent reporter gene assay
Shh-LIGHT2 cells were seeded (2.5×10^4 per well) in 96-well plates. After incubation for 16 h, medium was replaced by low serum-containing medium (0.5% FCS) supplemented with 1.5 μM purmorphamine and various concentrations of the compounds or DMSO as a control and cells were incubated for 48 h. […]

The kinetic solubility is solubility judged after dilution from a stock solution rather than from solid. By IC50 is commonly meant the midpoint of a concentration-inhibition curve. In the case of `COC(=O)C1(C(CC(=O)c2ccccc2)c2ccccc2)N=C(c2ccc(Br)cc2)C2C(=O)N(C)C(=O)C21` (stereo not drawn) [7a], in data set [1], the “Solubility (in words)” value was “limited solubility” and the kinetic solubility amounted to 5.7 µM (≈ 3.27 µg/mL). The “Effect on kinetics of geranylgeranylated RAC1 extraction by RHOGDI1 (in words)” value on RHOGDI1-RAC1 interaction is given as “slowed down the kinetics”. The IC50 in the data set on Shh-LIGHT2 cells (Shh Light2, Figure 2a, mean of three independent experiments) is 1600 nM. Moreover, the “Inhibition of GLI-dependent reporter gene expression (in words)” value in the data set with Shh-LIGHT2 cells is reported as “did not inhibit”.

On to `COC(=O)C1(CCC(=O)c2ccc(F)cc2)N=C(c2ccc(Br)cc2)C2C(=O)N(C)C(=O)C21` (stereo not drawn) [7d], for which the “Rate constant of RHOGDI1-mediated RAC1 displacement from liposomes in presence of compound” value at RHOGDI1-RAC1 interaction (25 µM RHOGDI1, mono-exponential fitting of RU decays) came to 0.032 s⁻¹. At RHOGDI1-RAC1 interaction, the “Effect on kinetics of geranylgeranylated RAC1 extraction by RHOGDI1 (in words)” value was “did not”.

As for `COC(=O)C1(C(CC(=O)c2cccnc2)c2ccccc2)N=C(c2ccc(Br)cc2)C2C(=O)N(C)C(=O)C21` (stereo not drawn) [7l], in data set [1], the kinetic solubility worked out at 47.3 µM (≈ 27.2 µg/mL). Besides, in the data set on Shh-LIGHT2 cells, the “Inhibition of GLI-dependent reporter gene expression (in words)” value is reported as “did not suppress”.
